Reference: paper PMC8129133, “Polymer-free corticosteroid dimer implants for controlled and sustained drug delivery” (Nature Communications, 2021)

Test system: vascular endothelial growth factor (VEGF) induced blood-retinal barrier breakdown
Experiment: Rabbit pharmacodynamics, VEGF-induced vascular leakage
Format: in vivo, Dutch Belted rabbits
Method: Pharmacodynamics. Rabbit pharmacodynamics studies were performed at Absorption Systems California (San Diego, CA, USA). All studies were conducted in compliance with relevant ethical regulations, including the USDA Animal Welfare Act (i.e., relevant sections of Section 9, Part 1, 2, and 3 of the Code of Federal Regulations) and in compliance with Absorption Systems’ Animal Welfare Assurance filed with the National Institutes of Health. Protocols were reviewed and approved by Absorption Systems’ Institutional Animal Care and Use Committee (IACUC) prior to the initiation of procedures. Treatment of animals was in accordance with conditions specified in the Guide for Care and Use of Laboratory Animals (NRC, 2011, National Academy Press). Animals were anesthetized with intramuscular ketamine hydrochloride (15-20 mg/kg) and xylazine (5 mg/kg) prior to test article injection or vascular leakage induction. The eye area was surgically prepped with 5% betadine and rinsing with balanced salt solution, followed by administration of 1–2 drops of topical proparacaine hydrochloride (0.5%). […] Test articles (27 G × 6 mm, 30 G × 6 mm, and 32 G × 6 mm Dex-TEG-Dex extruded rods, or Ozurdex®) were injected intravitreally in Dutch Belted rabbits (male, 1.84–2.49 kg, 5–6 months) on Day 0 and vascular leakage was induced by an intravitreal injection of VEGF (500 ng/eye) at acute and chronic timepoints (1 week, 2.5, 4.5, 6, 9, 12, and/or 18 months) post-implantation. Post-injection analgesia was provided by 0.02-0.05 mg/kg IM/SC buprenorphine. Negative control rabbits received a sham injection while positive control rabbits received a 2 mg solution dose of triamcinolone acetonide (Kenalog-40). Ophthalmic exams, including fundus microscopy and slit lamp microscopy, were carried out over the 3 days post-VEGF induction and vascular leakage was measured by fluorescein angiography on the third day post-VEGF induction. Eyes were graded based on fundus and fluorescein angiography images using a scoring system as follows[76]: 0 – major vessels straight, some tortuosity of smaller vessels, no vessel dilation; 1 – increased tortuosity of major vessels and/or some vessel dilation; 2 – leakage between major vessels, significant vessel dilation; 3 – leakage between major and minor vessels, minor vessels still visible; and 4 – leakage between major and minor vessels, minor vessels poorly/not visible.

C[C@@H]1C[C@H]2[C@@H]3CCC4=CC(=O)C=C[C@]4(C)[C@@]3(F)[C@@H](O)C[C@]2(C)[C@@]1(O)C(=O)COC(=O)OCCOCCOCCOC(=O)OCC(=O)[C@@]1(O)[C@H](C)C[C@H]2[C@@H]3CCC4=CC(=O)C=C[C@]4(C)[C@@]3(F)[C@@H](O)C[C@@]21C [Dex-TEG-Dex]
efficacy against VEGF-induced changes (1 week, Dex-TEG-Dex as 30 G × 6 mm implant): efficacious | duration of efficacy (27 G × 6 mm implant, all time points tested): ≥ 18 months | duration of inhibition of VEGF-induced effects (32 G × 6 mm implant): ≥ 4.5 months | efficacy against VEGF-induced changes (32 G × 6 mm implant, 6 months): reduced efficacy | duration of efficacy (Dex-TEG-Dex as 30 G × 6 mm implant, VEGF challenge): 9–12 months | duration of efficacy (Dex-TEG-Dex as 30 G × 6 mm implant, VEGF challenge, listed as dexamethasone dimer): > 6 months
